# Assay results: patent US20250340591A1, “COMPOSITION FOR PREVENTING OR TREATING INFLAMMATORY BOWEL DISEASE CONTAINING NOVEL COMPOUND” (ANYGEN CO., LTD., priority 2021, published 2025)
# Square brackets hold non-standard residues; d marks the D form. Peptide text beside a SMILES is read from it. * marks the point of attachment. His(Trt) = N[C@@H](Cc1cn(C(c2ccccc2)(c2ccccc2)c2ccccc2)cn1)C(=O)O; dHis(Trt) = N[C@H](Cc1cn(C(c2ccccc2)(c2ccccc2)c2ccccc2)cn1)C(=O)O; His(τ-CHPh2) = N[C@@H](Cc1cn(C(c2ccccc2)c2ccccc2)cn1)C(=O)O; sY = N[C@@H](Cc1ccc(OS(=O)(=O)O)cc1)C(=O)O; dPhe(4-Me) = Cc1ccc(C[C@@H](N)C(=O)O)cc1; Dmt = Cc1cc(O)cc(C)c1C[C@H](N)C(=O)O; Octanoyl = CCCCCCCC(=O)*
# Target: T1, GPR39 (Homo sapiens, UniProt O43194)
# T1 sequence (O43194 1-453): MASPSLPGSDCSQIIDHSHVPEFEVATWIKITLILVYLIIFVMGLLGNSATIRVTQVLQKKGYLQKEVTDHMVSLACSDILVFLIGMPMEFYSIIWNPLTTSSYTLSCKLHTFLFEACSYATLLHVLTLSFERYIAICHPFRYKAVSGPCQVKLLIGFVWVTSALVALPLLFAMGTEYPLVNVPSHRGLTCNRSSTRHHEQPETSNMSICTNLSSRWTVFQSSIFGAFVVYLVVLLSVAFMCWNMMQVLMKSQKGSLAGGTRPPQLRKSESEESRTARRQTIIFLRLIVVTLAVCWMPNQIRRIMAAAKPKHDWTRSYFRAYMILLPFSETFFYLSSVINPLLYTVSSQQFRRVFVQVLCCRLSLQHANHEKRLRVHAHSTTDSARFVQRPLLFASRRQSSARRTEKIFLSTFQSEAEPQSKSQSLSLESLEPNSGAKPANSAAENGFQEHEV
# Test: luciferase assay system (SRE luciferase reporter gene, CV-1 cells expressing GPR39)
# Format: cell-based
# Set-up: expressed in transfected cells; host or cells: CV-1 fibroblast cell line (Korea Cell Line Bank), adenoviral transduction at 50 MOI
# Details: not given
row,Compound,ECmax (−fold induction over basal) [fold induction over basal]
1,"CCCCCCCC(=O)NCCCC[C@H](NC(=O)[C@@H](N)Cc1cn(C(c2ccccc2)(c2ccccc2)c2ccccc2)cn1)C(=O)N[C@@H](Cc1ccccc1)C(=O)N[C@@H](Cc1ccc(O)cc1)C(=O)N[C@@H](CO)C(=O)N[C@@H](CC(=O)O)C(=O)N[C@@H](CCC(N)=O)C(=O)N[C@@H](CCC(N)=O)C(=O)N[C@@H](C)C(=O)N[C@@H](CCCNC(=N)N)C(=O)N[C@@H](Cc1ccccc1)C(N)=O [HKFY-38, (3S,6S,9S,12S,15S)-15-((S)-2-amino-3-(1-trityl-1H-imidazol-4-yl)propanamido)-12-benzyl-3-(((6S,9S,12S,15S)-1,18-diamino-6-(((S)-1-amino-1-oxo-3-phenylpropan-2-yl)carbamoyl)-12-(3-amino-3-oxopropyl)-1-imino-9-methyl-8,11,14,18-tetraoxo-2,7,10,13-tetraazaoctadecan-15-yl)carbamoyl)-9-(4-hydroxybenzyl)-6-(hydroxymethyl)-5,8,11,14,21-pentaoxo-4,7,10,13,20-pentaazaoctacosanoic acid] (H-[His(Trt)]K(Octanoyl)FYSDQQARF-NH2)",16.5 ± 0.02
2,"CCCCCCCC(=O)NCCCC[C@H](NC(=O)[C@@H](N)Cc1cn(C(c2ccccc2)(c2ccccc2)c2ccccc2)cn1)C(=O)N[C@@H](Cc1ccccc1)C(=O)N[C@@H](Cc1ccc(O)cc1)C(=O)N[C@@H](CO)C(=O)N[C@@H](Cc1c[nH]cn1)C(=O)N[C@@H](CCC(N)=O)C(=O)N[C@@H](CCC(N)=O)C(=O)N[C@@H](C)C(=O)N[C@@H](CCCNC(=N)N)C(=O)N[C@@H](Cc1ccccc1)C(N)=O [HKFY-40, (S)-2-((2S,5S,8S,11S,14S)-2-((1H-imidazol-4-yl)methyl)-14-((S)-2-amino-3-(1-trityl-1H-imidazol-4-yl)propanamido)-11-benzyl-8-(4-hydroxybenzyl)-5-(hydroxymethyl)-4,7,10,13,20-pentaoxo-3,6,9,12,19-pentaazaheptacosanamido)-N1-((S)-5-amino-1-(((S)-1-(((S)-1-(((S)-1-amino-1-oxo-3-phenylpropan-2-yl)amino)-5-guanidino-1-oxopentan-2-yl)amino)-1-oxopropan-2-yl)amino)-1,5-dioxopentan-2-yl)pentanediamide] (H-[His(Trt)]K(Octanoyl)FYSHQQARF-NH2)",13.4 ± 0.02
3,"CCCCCCCC(=O)NCCCC[C@H](NC(=O)[C@@H](N)Cc1cn(C(c2ccccc2)(c2ccccc2)c2ccccc2)cn1)C(=O)N[C@@H](Cc1ccccc1)C(=O)N[C@@H](Cc1ccc(O)cc1)C(=O)N[C@@H](Cc1c[nH]cn1)C(=O)N[C@@H](CCC(N)=O)C(=O)N[C@@H](CCC(N)=O)C(=O)N[C@@H](C)C(=O)N[C@@H](CCCNC(=N)N)C(=O)N[C@@H](Cc1ccccc1)C(N)=O [HKFY-42, (S)-2-((2S,5S,8S,11S)-2-((1H-imidazol-4-yl)methyl)-11-((S)-2-amino-3-(1-trityl-1H-imidazol-4-yl)propanamido)-8-benzyl-5-(4-hydroxybenzyl)-4,7,10,17-tetraoxo-3,6,9,16-tetraazatetracosanamido)-N1-((S)-5-amino-1-(((S)-1-(((S)-1-(((S)-1-amino-1-oxo-3-phenylpropan-2-yl)amino)-5-guanidino-1-oxopentan-2-yl)amino)-1-oxopropan-2-yl)amino)-1,5-dioxopentan-2-yl)pentanediamide] (H-[His(Trt)]K(Octanoyl)FYHQQARF-NH2)",11.8 ± 0.02

# Next, values leading:
row,ECmax (−fold induction over basal) [fold induction over basal],Compound
1,23.88 ± 3.04,"CCCCCCCC(=O)NCCCC[C@H](NC(=O)[C@@H](N)Cc1cn(C(c2ccccc2)(c2ccccc2)c2ccccc2)cn1)C(=O)N[C@H](Cc1ccc(C)cc1)C(=O)N[C@@H](Cc1ccc(O)cc1)C(=O)O [HKFY-30, ((R)-2-((S)-2-((S)-2-amino-3-(1-trityl-1H-imidazol-4-yl)propanamido)-6-octanamidohexanamido)-3-(p-tolyl)propanoyl)-L-tyrosine] (H-[His(Trt)]K(Octanoyl)[dPhe(4-Me)]Y-OH)"
2,20.9 ± 2.51,"CCCCCCCC(=O)NCCCC[C@H](NC(=O)[C@H](N)Cc1cn(C(c2ccccc2)(c2ccccc2)c2ccccc2)cn1)C(=O)N[C@H](Cc1ccc(C)cc1)C(=O)N[C@@H](Cc1ccc(O)cc1)C(=O)O [HKFY-31, ((R)-2-((S)-2-((R)-2-amino-3-(1-trityl-1H-imidazol-4-yl)propanamido)-6-octanamidohexanamido)-3-(p-tolyl)propanoyl)-L-tyrosine] (H-[dHis(Trt)]K(Octanoyl)[dPhe(4-Me)]Y-OH)"
3,21.5 ± 2.7,"CCCCCCCC(=O)NCCCC[C@H](NC(=O)[C@@H](N)Cc1cn(C(c2ccccc2)c2ccc(F)cc2F)cn1)C(=O)N[C@H](Cc1ccc(C)cc1)C(=O)N[C@@H](Cc1ccc(O)cc1)C(=O)O (stereo partly drawn) [HKFY-32, ((2R)-2-((2S)-2-((2S)-2-amino-3-(1-((2,4-difluorophenyl)(phenyl)methyl)-1H-imidazol-4-yl)propanamido)-6-octanamidohexanamido)-3-(p-tolyl)propanoyl)-L-tyrosine]"
4,20 ± 0.57,"CCCCCCCC(=O)NCCCC[C@H](NC(=O)[C@@H](N)Cc1cn(C(c2ccccc2)c2ccccc2)cn1)C(=O)N[C@@H](Cc1ccccc1)C(=O)N[C@@H](Cc1ccc(O)cc1)C(=O)O [HKFY-33, N2-(Nt-benzhydryl-L-histidyl)-N6-octanoyl-L-lysyl-L-phenylalanyl-L-tyrosine] (H-[His(τ-CHPh2)]K(Octanoyl)FY-OH)"
5,18.9 ± 0.41,"CCCCCCCC(=O)NCCCC[C@H](NC(=O)[C@@H](N)Cc1cn(C(c2ccccc2)c2ccccc2)cn1)C(=O)N[C@H](Cc1ccc(C)cc1)C(=O)N[C@@H](Cc1ccc(OS(=O)(=O)O)cc1)C(=O)O [HKFY-35, (S)-2-((R)-2-((S)-2-((S)-2-amino-3-(1-benzhydryl-1H-imidazol-4-yl)propanamido)-6-octanamidohexanamido)-3-(p-tolyl)propanamido)-3-(4-(sulfooxy)phenyl)propanoic acid] (H-[His(τ-CHPh2)]K(Octanoyl)[dPhe(4-Me)][sY]-OH)"
6,16 ± 1.7,"CCCCCCCC(=O)NCCCC[C@H](NC(=O)[C@H](Cc1cn(C(c2ccccc2)(c2ccccc2)c2ccccc2)cn1)NC(=O)[C@H](CO)NC(=O)CN)C(=O)N[C@@H](Cc1ccccc1)C(=O)N[C@@H](Cc1ccc(O)cc1)C(=O)O [HKFY-37, N2-(Na-glycyl-L-seryl-Nt-trityl-L-histidyl)-N6-octanoyl-L-lysyl-L-phenylalanyl-L-tyrosine] (H-GS[His(Trt)]K(Octanoyl)FY-OH)"

# Same assay, conditions: CV-1 cells, GPR39 and SRE luciferase adenovirus, 6 hours treatment
row,Compound,ECmax (−fold induction over basal) [fold induction over basal]
1,"CCCCCCCC(=O)NCCCC[C@H](NC(=O)[C@@H](N)Cc1cn(C(c2ccccc2)c2ccccc2)cn1)C(=O)N[C@H](Cc1ccc(C)cc1)C(=O)N[C@@H](Cc1c(C)cc(O)cc1C)C(=O)O [HKFY-36, (S)-2-((R)-2-((S)-2-((S)-2-amino-3-(1-benzhydryl-1H-imidazol-4-yl)propanamido)-6-octanamidohexanamido)-3-(p-tolyl)propanamido)-3-(4-hydroxy-2,6-dimethylphenyl)propanoic acid] (H-[His(τ-CHPh2)]K(Octanoyl)[dPhe(4-Me)][Dmt]-OH)",9.9 ± 0.28
2,"CCCCCCCC(=O)NCCCC[C@H](NC(=O)[C@@H](N)Cc1cn(C(c2ccccc2)(c2ccccc2)c2ccccc2)cn1)C(=O)N[C@@H](Cc1ccccc1)C(=O)N[C@@H](Cc1ccc(O)cc1)C(=O)N[C@@H](CO)C(=O)N[C@@H](CCC(N)=O)C(=O)N[C@@H](CC(=O)O)C(=O)NCC(=O)N[C@@H](C)C(=O)N[C@@H](CCCNC(=N)N)C(=O)N[C@@H](Cc1ccccc1)C(N)=O [HKFY-41, (3S,6S,9S,12S,15S,18S)-3-((2-(((S)-1-(((S)-1-(((S)-1-amino-1-oxo-3-phenylpropan-2-yl)amino)-5-guanidino-1-oxopentan-2-yl)amino)-1-oxopropan-2-yl)amino)-2-oxoethyl)carbamoyl)-18-((S)-2-amino-3-(1-trityl-1H-imidazol-4-yl)propanamido)-6-(3-amino-3-oxopropyl)-15-benzyl-12-(4-hydroxybenzyl)-9-(hydroxymethyl)-5,8,11,14,17,24-hexaoxo-4,7,10,13,16,23-hexaazahentriacontanoic acid] (H-[His(Trt)]K(Octanoyl)FYSQDGARF-NH2)",12.2 ± 0.02

# Same assay, conditions: comment on Table 3
row,Compound,activity level for GPR39 (in words)
1,"CCCCCCCC(=O)NCCCC[C@H](NC(=O)[C@@H](N)Cc1cn(C(c2ccccc2)(c2ccccc2)c2ccccc2)cn1)C(=O)N[C@H](Cc1ccc(C)cc1)C(=O)N[C@@H](Cc1ccc(O)cc1)C(=O)O [HKFY-30, ((R)-2-((S)-2-((S)-2-amino-3-(1-trityl-1H-imidazol-4-yl)propanamido)-6-octanamidohexanamido)-3-(p-tolyl)propanoyl)-L-tyrosine] (H-[His(Trt)]K(Octanoyl)[dPhe(4-Me)]Y-OH)",higher activity level than other HKFY derivatives

# Same assay, conditions: comment on Table 3; derivatives composed of d-Phe(methyl)
row,Compound,activity and ECmax value for GPR39 (in words)
1,"CCCCCCCC(=O)NCCCC[C@H](NC(=O)[C@@H](N)Cc1cn(C(c2ccccc2)(c2ccccc2)c2ccccc2)cn1)C(=O)N[C@H](Cc1ccc(C)cc1)C(=O)N[C@@H](Cc1ccc(O)cc1)C(=O)O [HKFY-30, ((R)-2-((S)-2-((S)-2-amino-3-(1-trityl-1H-imidazol-4-yl)propanamido)-6-octanamidohexanamido)-3-(p-tolyl)propanoyl)-L-tyrosine] (H-[His(Trt)]K(Octanoyl)[dPhe(4-Me)]Y-OH)",most excellent activity and high ECmax value
